Bounds are passed on as bounds.

Assay [1] concerns the target T1, ALK2 R206H (GST-tagged mutant ALK2) (Homo sapiens, UniProt Q04771, R206H).
T1 construct: purchased Carna Bioscience or ThermoFisher 09-148 or PV6232
T1 sequence (Q04771 21-509 R206H): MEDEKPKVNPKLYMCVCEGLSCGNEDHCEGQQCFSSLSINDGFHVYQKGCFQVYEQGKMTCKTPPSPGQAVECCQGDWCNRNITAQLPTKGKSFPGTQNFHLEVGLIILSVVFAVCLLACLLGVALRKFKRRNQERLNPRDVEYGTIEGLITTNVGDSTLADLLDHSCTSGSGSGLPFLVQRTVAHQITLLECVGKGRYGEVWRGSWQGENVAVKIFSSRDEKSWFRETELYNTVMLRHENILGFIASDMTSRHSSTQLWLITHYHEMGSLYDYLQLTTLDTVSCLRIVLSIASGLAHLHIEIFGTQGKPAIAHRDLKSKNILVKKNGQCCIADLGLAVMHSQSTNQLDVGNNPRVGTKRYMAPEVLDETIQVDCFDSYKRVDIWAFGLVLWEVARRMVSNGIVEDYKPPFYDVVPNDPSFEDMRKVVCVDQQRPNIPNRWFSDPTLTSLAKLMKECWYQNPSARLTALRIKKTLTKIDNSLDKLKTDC
The experiment in a line: ALK binding assay (LANTHASCREEN TR-FRET competitive binding, displacement of Kinase Tracer 178). The following applies: ALK2 R206H, LANTHASCREEN TR-FRET competitive binding; read-out: Binding Assay (IC50). On the technique in general: Time-resolved FRET reads energy transfer from a long-lived donor to a nearby acceptor.

Assay [2] concerns the target T2, human ALK2 R206H (Homo sapiens, UniProt Q04771, R206H).
T2 construct: expressed in transfected cells; host or cells: HEK293 (ATCC CRL1573), lentivirus transduction, blasticidin selection
T2 sequence (Q04771 21-509 R206H): T1 sequence (Q04771 21-509 R206H)
The experiment in a line: Cell-based ALK2-R206H cell activity assay (Smad1-Ser463/Ser465 phosphorylation by AlphaLISA in HEK293-ALK2-R206H cells). The settings on record: read-out: Cell Line (Cell Assay IC50). In outline:
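Stable HEK293 cells expressing C-terminally FLAG-tagged human ALK2 R206H (lentiviral, blasticidin-selected) were treated with compounds in 10-point, 3-fold dilutions from 10 μM or 1 μM top, in duplicate. Smad1 Ser463/Ser465 phosphorylation was read by AlphaLISA.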

What is called IC50 is the concentration that gives 50% inhibition. `CC(C)N1CC[C@H](c2ccc(-c3cc4c(N5CCN(C(=O)[C@H]6C[C@H](C#N)C6)CC5)ccnn4c3)cc2)C1` [Compound 366]: the 50% inhibitory concentration (IC50) was under 0.01 µM in assay [1] and under 0.1 µM in assay [2].

As for `CCN1CCN(c2ccc(-c3cc4c(N5CCN(C(=O)C6CC(C#N)C6)CC5)ccnn4c3)cc2)CC1` (centres unmarked) [Compound 367], the IC50 in assay [1] is under 0.01 µM; in assay [2], under 0.1 µM.

Regarding `CC(C)N1CC[C@H](c2ccc(-c3cc4c(N5CCN(C(=O)N6CC(C#N)C6)CC5)ccnn4c3)cc2)C1` [Compound 368], the concentration for half-maximal inhibition (IC50) is under 0.01 µM in assay [1] and under 0.1 µM in assay [2].

For `CC(C)N1CC[C@@H](c2ccc(-c3cc4c(N5CCN(C(=O)N6CC(C#N)C6)CC5)ccnn4c3)cc2)C1` [Compound 369], the IC50 in assay [1] is under 0.01 µM; in assay [2], under 0.1 µM.

As for `CCN1CCC(c2ccc(-c3cc4c(N5CCN(C(=O)N6CC(C#N)C6)CC5)ccnn4c3)cc2)CC1` [Compound 370], the concentration for half-maximal inhibition (IC50) in assay [1] was under 0.01 µM; in assay [2] it was under 0.1 µM.

Regarding `N#C[C@H]1CC[C@H](C(=O)N2CCN(c3ccnn4cc(-c5ccc(N6CCNCC6)cc5)cc34)CC2)CC1` [Compound 371], the half-maximal inhibitory concentration (IC50) in assay [1] was under 0.01 µM; in assay [2], under 0.1 µM.

For `O=C(C1CC1)N1CCN(c2ccnn3cc(-c4ccc(N5CCNC(C(F)(F)F)C5)cc4)cc23)CC1` (centres unmarked) [Compound 373], the IC50 in assay [1] is 0.01 to 0.05 µM; in assay [2] it was over 0.5 µM.

In the case of `N#C[C@H]1CC[C@H](C(=O)N2CCN(c3ccnn4cc(-c5ccc(C6CNCCO6)cc5)cc34)CC2)CC1` (some centres unmarked) [Compound 375], the results for the IC50 in assay [1] and in assay [2] were under 0.01 µM and under 0.1 µM, respectively.

For `CCN1CCN(c2ccc(-c3cc4c(N5CCN(C(=O)N6CC(C#N)C6)CC5)ccnn4c3)cc2)CC1` [Compound 376], the 50% inhibitory concentration (IC50) in assay [1] was under 0.01 µM; in assay [2] it was under 0.1 µM.

For `CC(C)N1CCC(c2ccc(-c3cc4c(N5CCN(C(=O)NCCC#N)CC5)ccnn4c3)cc2)CC1` [Compound 377], the half-maximal inhibitory concentration (IC50) in assay [1] is under 0.01 µM; in assay [2], 0.1 to 0.5 µM.

As for `CCN1CCC(c2ccc(-c3cc4c(N5CCN(C(=O)N6CCCCC6)CC5)ccnn4c3)cc2)CC1` [Compound 379], the half-maximal inhibitory concentration (IC50) in assay [1] was under 0.01 µM; in assay [2] it was 0.1 to 0.5 µM.

Consider `CC(C)N1CCC(c2ccc(-c3cc4c(N5CCN(C(=O)NC6CCC6)CC5)ccnn4c3)cc2)CC1` [Compound 380], for which the half-maximal inhibitory concentration (IC50) in assay [1] is under 0.01 µM; in assay [2], under 0.1 µM.

On to `CC(C)N1CCCC(c2ccc(-c3cc4c(N5CCN(C(=O)[C@H]6C[C@H](O)C6)CC5)ccnn4c3)cc2)C1` (some centres unmarked) [Compound 381], for which the concentration for half-maximal inhibition (IC50) in assay [1] was under 0.01 µM; in assay [2], under 0.1 µM.

Take `CCN1CCC(c2ccc(-c3cc4c(N5CCN(C(=O)[C@H]6C[C@H](O)C6)[C@H](C)C5)ccnn4c3)cc2)CC1` [Compound 382]: the IC50 is under 0.01 µM in assay [1] and under 0.1 µM in assay [2].

Take `CCN1CCC(c2ccc(-c3cc4c(N5CCN(C(=O)C6CC(C)(O)C6)CC5)ccnn4c3)cc2)CC1` (centres unmarked) [Compound 383]: the half-inhibitory concentration (IC50) in assay [1] is under 0.01 µM; in assay [2], under 0.1 µM.

On to `CCN1CCC(c2ccc(-c3cc4c(N5CCN(C(=O)[C@H]6C[C@](C)(O)C6)CC5)ccnn4c3)cc2)CC1` [Compound 384], for which the 50% inhibitory concentration (IC50) in assay [1] is under 0.01 µM; in assay [2], under 0.1 µM.

Turning to `CC(C)N1CCC[C@@H](c2ccc(-c3cc4c(N5CCN(C(=O)[C@H]6C[C@H](O)C6)CC5)ccnn4c3)cc2)C1` [Compound 385], the IC50 was under 0.01 µM in assay [1] and under 0.1 µM in assay [2].

Take `CC(C)N1CCC(c2ccc(-c3cc4c(N5CCN(C(=O)OCC6CC6)CC5)ccnn4c3)cc2)CC1` [Compound 386]: the values for the IC50 in assay [1] and in assay [2] were under 0.01 µM and 0.1 to 0.5 µM, respectively.

With `CC(C)N1CCC[C@H](c2ccc(-c3cc4c(N5CCN(C(=O)[C@H]6C[C@H](O)C6)CC5)ccnn4c3)cc2)C1` [Compound 387], the IC50 in assay [1] is under 0.01 µM; in assay [2], under 0.1 µM.

With `COC1(c2ccc(-c3cc4c(N5CCN(C(=O)C6CC6)CC5)ccnn4c3)cc2)CCCN(C(C)C)C1` (centres unmarked) [Compound 388], the IC50 in assay [1] is under 0.01 µM; in assay [2] it was under 0.1 µM.

Turning to `CCN1CCN(CCOc2ccc(-c3cc4c(N5CCN(C(=O)C6CC6)CC5)ccnn4c3)cc2)CC1` [Compound 390, cyclopropyl(4-(6-(4-(2-(4-ethylpiperazin-1-yl)ethoxy)phenyl)pyrrolo[1,2-b]pyridazin-4-yl)piperazin-1-yl)methanone], the IC50 in assay [1] lay within 0.01 to 0.05 µM; in assay [2], 0.1 to 0.5 µM.

In the case of `CCN1CCN(c2ccc(-c3cc4c(N5CCN(C(=O)C6CC(C)(O)C6)CC5)ccnn4c3)cc2)CC1` (centres unmarked) [Compound 391], the values for the IC50 in assay [1] and in assay [2] were under 0.01 µM and under 0.1 µM, respectively.

On to `CC[C@H](C)NC(=O)N1CCN(c2ccnn3cc(-c4ccc(C5CCN(C(C)C)CC5)cc4)cc23)CC1` [Compound 393], for which the results for the IC50 in assay [1] and in assay [2] were under 0.01 µM and 0.1 to 0.5 µM, respectively.

Turning to `CCNC(=O)N1CCN(c2ccnn3cc(-c4ccc(C5(OC)CCN(C(C)C)CC5)cc4)cc23)CC1` [Compound 399], the values for the half-maximal inhibitory concentration (IC50) in assay [1] and in assay [2] were under 0.01 µM and under 0.1 µM, respectively.

On to `CCNC(=O)N1CCN(c2ccnn3cc(-c4ccc(C5(OC)CCCN(C(C)C)C5)cc4)cc23)CC1` (centres unmarked) [Compound 400], for which the concentration for half-maximal inhibition (IC50) in assay [1] was under 0.01 µM; in assay [2] it was under 0.1 µM.

Regarding `COCCOC(=O)N1CCN(c2ccnn3cc(-c4ccc(C5CCN(C(C)C)CC5)cc4)cc23)CC1` [Compound 401], the half-inhibitory concentration (IC50) was under 0.01 µM in assay [1] and 0.1 to 0.5 µM in assay [2].

Consider `CCN1CCN(c2ccc(-c3cc4c(N5CCN(C(=O)C6CC(F)(F)C6)CC5)ccnn4c3)cc2)CC1` [Compound 402], for which the IC50 was under 0.01 µM in assay [1] and 0.1 to 0.5 µM in assay [2].

With `CCN1CC2(C1)CN(c1ccc(-c3cc4c(N5CCN(C(=O)N6CC(C#N)C6)CC5)ccnn4c3)cc1)C2` [Compound 404], the IC50 was under 0.01 µM in assay [1] and 0.1 to 0.5 µM in assay [2].

As for `CC(C)N1CC(c2ccc(-c3cc4c(N5CCN(C(=O)[C@H]6CC[C@H](C#N)CC6)CC5)ccnn4c3)cc2)C1` [Compound 406], the IC50 in assay [1] is under 0.01 µM; in assay [2] it was under 0.1 µM.

`CC(C)N1CCC(c2ccc(-c3cc4c(N5CCN(C(=O)[C@H]6C[C@@H]6C#N)[C@H](C)C5)ccnn4c3)cc2)CC1` [Compound 407]: the IC50 in assay [1] is under 0.01 µM; in assay [2], under 0.1 µM.

In the case of `CC(C)N1CCC[C@@H](c2ccc(-c3cc4c(N5CCN(C(=O)[C@H]6C[C@H](C#N)C6)CC5)ccnn4c3)cc2)C1` [Compound 408], the IC50 in assay [1] is under 0.01 µM; in assay [2], under 0.1 µM.

Consider `CC(C)N1CCC[C@H](c2ccc(-c3cc4c(N5CCN(C(=O)[C@H]6C[C@H](C#N)C6)CC5)ccnn4c3)cc2)C1` [Compound 409], for which the half-inhibitory concentration (IC50) in assay [1] is under 0.01 µM; in assay [2], under 0.1 µM.

Take `CC(C)N1CCCC(c2ccc(-c3cc4c(N5CCN(C(=O)N6CC(C#N)C6)CC5)ccnn4c3)cc2)C1` (centres unmarked) [Compound 411]: the figures for the concentration for half-maximal inhibition (IC50) in assay [1] and in assay [2] were under 0.01 µM and 0.1 to 0.5 µM, respectively.

Regarding `CCN1CCC(c2ccc(-c3cc4c(N5CCN(C(=O)N6CC(C#N)C6)[C@H](C)C5)ccnn4c3)cc2)CC1` [Compound 412], the half-maximal inhibitory concentration (IC50) in assay [1] was under 0.01 µM; in assay [2], under 0.1 µM.

`CC(C)N1CCN(c2ccc(-c3cc4c(N5CCN(C(=O)[C@H]6C[C@H](C#N)C6)CC5)ccnn4c3)cc2)CC1` [Compound 413]: the concentration for half-maximal inhibition (IC50) is under 0.01 µM in assay [1] and under 0.1 µM in assay [2].

For `CCN1CCC(c2ccc(-c3cc4c(N5CCN(C(=O)C6CCC(C)CC6)CC5)ccnn4c3)cc2)CC1` (centres unmarked) [Compound 415], the half-inhibitory concentration (IC50) in assay [1] is under 0.01 µM; in assay [2], under 0.1 µM.

`CC(C)N1CC[C@H](c2ccc(-c3cc4c(N5CCN(C(=O)[C@H]6CC[C@H](O)CC6)CC5)ccnn4c3)cc2)C1` [Compound 418]: the IC50 in assay [1] was under 0.01 µM; in assay [2], under 0.1 µM.

In the case of `CC(C)N1CC[C@@H](c2ccc(-c3cc4c(N5CCN(C(=O)[C@H]6CC[C@H](O)CC6)CC5)ccnn4c3)cc2)C1` [Compound 419], the half-maximal inhibitory concentration (IC50) in assay [1] is under 0.01 µM; in assay [2] it was under 0.1 µM.

`CC(C)N1CCC(c2ccc(-c3cc4c(N5CCN(C(=O)[C@H]6C[C@](C)(O)C6)CC5)ccnn4c3)cc2)CC1` [Compound 420]: the IC50 in assay [1] was under 0.01 µM; in assay [2] it was under 0.1 µM.

For the compound `CC(C)N1CCC(c2ccc(-c3cc4c(N5CCN(C(=O)[C@H]6C[C@@](C)(O)C6)CC5)ccnn4c3)cc2)CC1` [Compound 421], the figures for the IC50 in assay [1] and in assay [2] were under 0.01 µM and under 0.1 µM, respectively.

Turning to `CCN1CCN(c2ccc(-c3cc4c(N5CCN(C(=O)[C@H]6CC[C@H](O)CC6)CC5)ccnn4c3)cc2)CC1` [Compound 422], the results for the IC50 in assay [1] and in assay [2] were under 0.01 µM and under 0.1 µM, respectively.

Regarding `CCN1CCC(c2ccc(-c3cc4c(N5CCN(C(=O)N6CCC(O)CC6)CC5)ccnn4c3)cc2)CC1` [Compound 423], the IC50 in assay [1] was under 0.01 µM; in assay [2] it was 0.1 to 0.5 µM.

`CC(C)N1CC2(CN(c3ccc(-c4cc5c(N6CCN(C(=O)[C@H]7C[C@H](C#N)C7)CC6)ccnn5c4)cc3)C2)C1` [Compound 426]: the figures for the half-maximal inhibitory concentration (IC50) in assay [1] and in assay [2] were under 0.01 µM and under 0.1 µM, respectively.

(Values after patent US10233186B2, “Inhibitors of activin receptor-like kinase” (BLUEPRINT MEDICINES CORPORATION, priority 2016, dated 2019).)
